In US8871753B2, “Macrocyclic compounds and their use as kinase inhibitors” (Incyte Corporation, priority 2008, dated 2014):
Structures can show the parent of a compound that is named as a salt. Where two headings read alike, the source gives them in different places.

How the values were obtained:
Format in all cases: biochemical
[1] = biological target: T1, human JAK1 (a.a. 837-1142) (Homo sapiens, UniProt P23458); assay: In vitro JAK kinase assay (HTRF, phosphorylation of a biotinylated peptide), JAK1; conditions: read-out: JAK1 IC50
T1 construct: human JAK1 (a.a. 837-1142); His tag (N); made in house; host or cells: insect cells (baculovirus)
Procedure, shortened: (§1)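 Phosphorylation of a biotinylated peptide by the JAK kinase domain, detected by HTRF with Eu-Py20 and SA-APC. ATP was 90 μM for JAK1, 30 μM for JAK2 and 3 μM for JAK3. Reactions ran 1 h at room temperature and were stopped with EDTA, followed by 40 min antibody binding.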

[2] = biological target: T2, human JAK2 (a.a. 828-1132) (Homo sapiens, UniProt O60674); assay: In vitro JAK kinase assay (HTRF, phosphorylation of a biotinylated peptide), JAK2
T2 construct: JAK2 (a.a. 828-1132); His tag (N); made in house; host or cells: insect cells (baculovirus)
Procedure, shortened: as §1

[3] = biological target: T3, human JAK3 (a.a. 781-1124) (Homo sapiens, UniProt P52333); assay: In vitro JAK kinase assay (HTRF, phosphorylation of a biotinylated peptide), JAK3
T3 construct: JAK3 (a.a. 781-1124); His tag (N); made in house; host or cells: insect cells (baculovirus)
Procedure, shortened: as §1

[4] = biological target: TYK2 (Homo sapiens, UniProt P29597); assay: TYK2 kinase inhibition (Table A1)
[5] = biological target: T4, Recombinant Human Anaplastic Lymphoma Kinase (Homo sapiens, UniProt Q9UM73); assay: ALK HTRF kinase assay
T4 construct: purchased Invitrogen, Carlsbad, Calif
Procedure, shortened: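 Compounds were incubated with recombinant human ALK and a biotin-tagged peptide substrate. Product was captured with streptavidin-APC and probed with a europium anti-phosphotyrosine antibody, and plates were read for time-resolved fluorescence. Dose-response data were fitted to derive IC50.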

[6] = method AA1 (90 μM ATP) or AA2 (1000 μM ATP), not stated per value
[7] = method AA1 (30 μM ATP) or AA2 (1000 μM ATP), not stated per value
[8] = method AA1 (3 μM ATP) or AA2 (1000 μM ATP), not stated per value
[9] = compound at 500 nM or 1 mM, 90 μM ATP

T3 sequence (P52333 781-1124): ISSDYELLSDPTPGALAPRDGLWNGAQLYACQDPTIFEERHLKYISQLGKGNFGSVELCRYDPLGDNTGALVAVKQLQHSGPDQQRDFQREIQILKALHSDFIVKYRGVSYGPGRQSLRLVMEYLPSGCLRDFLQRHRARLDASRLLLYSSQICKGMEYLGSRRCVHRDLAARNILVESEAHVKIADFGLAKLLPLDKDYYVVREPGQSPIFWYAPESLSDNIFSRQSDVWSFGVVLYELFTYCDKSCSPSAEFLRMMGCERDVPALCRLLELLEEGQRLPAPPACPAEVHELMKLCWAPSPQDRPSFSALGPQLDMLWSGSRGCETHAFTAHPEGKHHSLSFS
Chain of TYK2 (P29597 whole entry): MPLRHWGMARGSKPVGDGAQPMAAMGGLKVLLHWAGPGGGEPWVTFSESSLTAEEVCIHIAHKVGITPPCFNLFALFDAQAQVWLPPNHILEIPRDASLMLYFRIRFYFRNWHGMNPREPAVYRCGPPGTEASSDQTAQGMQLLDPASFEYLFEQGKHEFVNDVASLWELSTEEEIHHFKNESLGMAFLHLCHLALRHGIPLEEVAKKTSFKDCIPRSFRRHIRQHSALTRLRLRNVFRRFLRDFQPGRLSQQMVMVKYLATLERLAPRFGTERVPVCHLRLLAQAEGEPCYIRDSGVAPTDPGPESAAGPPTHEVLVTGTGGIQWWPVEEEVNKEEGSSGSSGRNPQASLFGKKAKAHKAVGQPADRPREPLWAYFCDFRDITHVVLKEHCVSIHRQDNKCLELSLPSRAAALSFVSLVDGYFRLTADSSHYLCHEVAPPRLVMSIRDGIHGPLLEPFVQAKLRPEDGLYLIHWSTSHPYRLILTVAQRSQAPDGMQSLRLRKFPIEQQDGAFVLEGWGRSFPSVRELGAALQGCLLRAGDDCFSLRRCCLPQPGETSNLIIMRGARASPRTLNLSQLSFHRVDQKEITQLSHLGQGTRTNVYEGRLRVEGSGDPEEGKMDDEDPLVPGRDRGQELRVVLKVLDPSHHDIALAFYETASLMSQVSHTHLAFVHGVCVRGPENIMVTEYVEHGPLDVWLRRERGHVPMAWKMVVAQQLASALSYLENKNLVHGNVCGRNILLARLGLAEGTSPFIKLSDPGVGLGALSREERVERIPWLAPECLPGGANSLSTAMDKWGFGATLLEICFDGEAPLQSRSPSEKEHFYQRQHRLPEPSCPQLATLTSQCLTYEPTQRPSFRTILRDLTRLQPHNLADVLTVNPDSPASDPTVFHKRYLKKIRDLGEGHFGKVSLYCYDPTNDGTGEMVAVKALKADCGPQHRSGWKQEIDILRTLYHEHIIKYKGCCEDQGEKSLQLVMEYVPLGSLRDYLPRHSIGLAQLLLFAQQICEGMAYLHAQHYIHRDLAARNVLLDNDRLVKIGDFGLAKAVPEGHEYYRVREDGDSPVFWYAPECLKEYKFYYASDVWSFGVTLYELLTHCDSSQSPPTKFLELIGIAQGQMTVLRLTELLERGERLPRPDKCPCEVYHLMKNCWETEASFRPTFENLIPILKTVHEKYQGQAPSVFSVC
T2 sequence (O60674 828-1132): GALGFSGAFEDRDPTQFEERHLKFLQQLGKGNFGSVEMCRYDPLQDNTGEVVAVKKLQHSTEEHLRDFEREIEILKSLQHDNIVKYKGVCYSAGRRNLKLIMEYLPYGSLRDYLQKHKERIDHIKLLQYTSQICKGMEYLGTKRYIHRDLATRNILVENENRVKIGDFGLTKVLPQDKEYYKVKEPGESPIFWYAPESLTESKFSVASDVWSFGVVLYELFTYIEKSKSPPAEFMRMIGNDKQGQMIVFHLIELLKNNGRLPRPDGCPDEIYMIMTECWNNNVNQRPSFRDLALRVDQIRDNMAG
T4 sequence (Q9UM73 19-1620): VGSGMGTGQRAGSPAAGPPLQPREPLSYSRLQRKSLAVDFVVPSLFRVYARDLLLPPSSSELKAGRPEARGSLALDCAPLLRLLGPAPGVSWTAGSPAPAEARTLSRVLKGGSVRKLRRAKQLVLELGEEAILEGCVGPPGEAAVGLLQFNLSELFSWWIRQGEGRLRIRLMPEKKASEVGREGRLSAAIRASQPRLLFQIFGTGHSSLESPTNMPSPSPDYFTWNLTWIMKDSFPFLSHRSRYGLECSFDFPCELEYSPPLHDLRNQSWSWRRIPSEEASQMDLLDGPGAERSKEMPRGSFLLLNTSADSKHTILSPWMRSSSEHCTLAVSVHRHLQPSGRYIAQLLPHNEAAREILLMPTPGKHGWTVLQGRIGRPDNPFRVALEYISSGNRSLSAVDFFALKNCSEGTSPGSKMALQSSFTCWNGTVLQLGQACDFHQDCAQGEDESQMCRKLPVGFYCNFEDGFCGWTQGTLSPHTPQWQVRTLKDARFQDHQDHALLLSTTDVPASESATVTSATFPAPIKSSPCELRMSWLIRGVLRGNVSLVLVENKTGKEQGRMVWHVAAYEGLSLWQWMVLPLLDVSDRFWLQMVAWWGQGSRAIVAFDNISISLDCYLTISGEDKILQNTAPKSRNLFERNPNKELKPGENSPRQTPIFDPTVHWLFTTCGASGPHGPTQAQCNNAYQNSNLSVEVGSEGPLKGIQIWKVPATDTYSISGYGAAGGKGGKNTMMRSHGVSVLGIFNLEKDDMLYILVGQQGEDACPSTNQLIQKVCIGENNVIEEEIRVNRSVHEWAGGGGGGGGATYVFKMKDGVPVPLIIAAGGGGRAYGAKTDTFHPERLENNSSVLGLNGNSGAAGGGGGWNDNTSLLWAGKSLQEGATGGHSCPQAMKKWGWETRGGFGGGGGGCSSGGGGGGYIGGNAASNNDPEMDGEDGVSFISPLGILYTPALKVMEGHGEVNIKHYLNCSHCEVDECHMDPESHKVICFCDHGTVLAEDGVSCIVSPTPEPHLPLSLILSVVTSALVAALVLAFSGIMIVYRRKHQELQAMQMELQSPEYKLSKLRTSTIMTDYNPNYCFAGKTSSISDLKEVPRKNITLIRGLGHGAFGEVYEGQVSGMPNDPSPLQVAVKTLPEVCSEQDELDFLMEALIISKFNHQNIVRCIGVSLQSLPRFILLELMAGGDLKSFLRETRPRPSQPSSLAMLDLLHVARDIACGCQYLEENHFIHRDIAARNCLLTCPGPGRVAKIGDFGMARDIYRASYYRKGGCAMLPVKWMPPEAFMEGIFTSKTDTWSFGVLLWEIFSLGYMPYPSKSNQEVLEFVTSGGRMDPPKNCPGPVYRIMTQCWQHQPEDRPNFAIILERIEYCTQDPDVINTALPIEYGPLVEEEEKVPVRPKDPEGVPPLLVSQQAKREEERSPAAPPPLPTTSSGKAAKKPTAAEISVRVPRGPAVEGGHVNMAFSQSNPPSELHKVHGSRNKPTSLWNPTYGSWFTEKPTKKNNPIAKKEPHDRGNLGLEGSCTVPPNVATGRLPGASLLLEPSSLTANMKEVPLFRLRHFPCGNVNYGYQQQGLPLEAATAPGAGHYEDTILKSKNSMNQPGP
T1 sequence (P23458 849-1154): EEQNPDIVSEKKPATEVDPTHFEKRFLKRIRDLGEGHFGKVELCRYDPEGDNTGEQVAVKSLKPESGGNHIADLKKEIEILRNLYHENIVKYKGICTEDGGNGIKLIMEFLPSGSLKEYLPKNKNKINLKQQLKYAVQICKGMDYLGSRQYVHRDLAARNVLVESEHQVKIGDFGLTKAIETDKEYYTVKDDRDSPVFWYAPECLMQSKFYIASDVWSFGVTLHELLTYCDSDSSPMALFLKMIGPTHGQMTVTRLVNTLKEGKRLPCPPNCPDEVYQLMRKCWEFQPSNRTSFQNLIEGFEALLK

Row | IC50 ([1]; Table B1) | IC50 ([2]; Table B1) | IC50 ([3]; Table B1) | IC50 ([4]; Table B1) | IC50 ([5]; Table B1, cells without percent sign) | IC50 [1, 6] | IC50 [2, 7] | IC50 [3, 8] | IC50 [4] | ALK % of inhibition at a concentration of 500 nM or 1 mM [5, 9] | ALK % of inhibition at a concentration of 500 nM or 1 mM ([5]; compound at a concentration of 500 nM or 1 mM (not specified), cells shown as percentage) | Compound
1 | 0.87 nM | 0.78 nM | 2.9 nM | 2.5 nM | 260 nM |  |  |  |  |  |  | O=C(Nc1ccc2cc1CCc1cccc(c1)Nc1ncc(Cl)c(n1)N2)c1cccnc1 [Example B30, N-[6-Chloro-2,4,8,22-tetraazatetracyclo[14.3.1.1(3,7).1(9,13)]docosa-1(20), 3(22),4,6,9(21),10,12,16,18-nonaen-12-yl]nicotinamide bis(trifluoroacetate)]
2 |  |  |  |  |  | 1 nM | 13 nM | > 200 nM | 1.8 nM | 28% |  | Cc1cc(C(=O)N2CCC(CC(=O)Nc3ccc4cc3CCc3cccc(c3)Nc3ncc(Cl)c(n3)N4)CC2)n[nH]1 [Example A175, N-[6-Chloro-2,4,8,22-tetraazatetracyclo[14.3.1.1(3,7).1(9,13)]docosa-1(20),3(22),4,6,9(21),10,12,16,18-nonaen-12-yl]-2-{1-[(5-methyl-1H-pyrazol-3-yl)carbonyl]piperidin-4-yl}acetamide bis(trifluoroacetate)]
3 |  |  |  |  |  | 0.9 nM | 3.6 nM | > 100 nM | 7.1 nM | 34% |  | O=C(CC1CCN(C(=O)Nc2ccccc2F)CC1)Nc1ccc2cc1CCc1cncc(c1)Nc1ncc(Cl)c(n1)N2 [Example A146, 4-(2-{[6-Chloro-2,4,8,18,22-pentaazatetracyclo[14.3.1.1(3,7).1(9,13)]docosa-1(20),3(22),4,6,9(21),10,12,16,18-nonaen-12-yl]amino}-2-oxoethyl)-N-(2-fluorophenyl)piperidine-1-carboxamide bis(trifluoroacetate)]
4 |  |  |  |  |  | 2.2 nM | 4.5 nM | 7.8 nM | 15 nM | 35% |  | O=C(Nc1ccc2cc1CCc1cccc(c1)Nc1ncc(Cl)c(n1)N2)[C@@H]1CCN(C(=O)c2ccccc2)C1 [Example A52, (3R)-1-Benzoyl-N-[6-chloro-2,4,8,22-tetraazatetracyclo[14.3.1.1(3,7).1(9,13)]docosa-1(20),3(22),4,6,9(21),10,12,16,18-nonaen-12-yl]pyrrolidine-3-carboxamide trifluoroacetate]
5 |  |  |  |  |  | 12 nM | 66 nM | > 200 nM | 150 nM | 37% |  | O=C(CC1CCN(S(=O)(=O)c2ccco2)CC1)Nc1ccc2cc1CCc1cccc(c1)Nc1ncc(Cl)c(n1)N2 [Example A211, N-[6-Chloro-2,4,8,22-tetraazatetracyclo[14.3.1.1(3,7).1(9,13)]docosa-1(20),3(22),4,6,9(21),10,12,16,18-nonaen-12-yl]-2-[1-(2-furylsulfonyl)piperidin-4-yl]acetamide trifluoroacetate]
6 | 0.82 nM | 1.1 nM | 17 nM | 2.6 nM |  |  |  |  |  |  | 24% | CS(=O)(=O)N1CC[C@H](NC(=O)Nc2ccc3cc2CCc2cccc(c2)Nc2ncc(Cl)c(n2)N3)C1 [Example B172, N-[6-Chloro-2,4,8,22-tetraazatetracyclo[14.3.1.1(3,7).1(9,13)]docosa-1(20),3(22),4,6,9(21),10,12,16,18-nonaen-12-yl]-N′-[(3S)-1-(methylsulfonyl)pyrrolidin-3-yl]urea trifluoroacetate]
7 |  |  |  |  |  | 17 nM | 54 nM | 238 nM | 61 nM | 14% |  | CC(C)(C)NC(=O)N1CCC(CC(=O)Nc2ccc3cc2CCc2cncc(c2)Nc2ncc(Cl)c(n2)N3)CC1 [Example A113, N-(tert-Butyl)-4-(2-{[6-chloro-2,4,8,18,22-pentaazatetracyclo[14.3.1.1(3,7).1(9,13)]docosa-1(20),3(22),4,6,9(21),10,12,16,18-nonaen-12-yl]amino}-2-oxoethyl)piperidine-1-carboxamide bis(trifluoroacetate)]
